Consider four molecules from patent US20160081985A1, “CENICRIVIROC COMPOSITIONS AND METHODS OF MAKING AND USING THE SAME” (Tobira Therapeutics, Inc., priority 2013, published 2016).

Series [1] can be described thus: Dissolution time of acid solubilizers in purified water (FBRM). The series is classed as physicochemical. As to conditions: 200 mg acid in 90 mL purified water, 250 rpm. The protocol:
The results described in Table 1 were performed by adding 200 mg of the acid to 90 mL purified water using a Mettler Toledo mixing chamber held at the specified temperature with an upward pumping four blade impeller at 250 rpm. The disappearance of particles undergoing dissolution was monitored by focused-beam reflectance measurement (FBRM). Data was analyzed by reviewing individual 2 second measurement trends as well as trends averaged over 10 and 30 seconds.

The conditions of series [2]: humans; efavirenz as inducer of CYP3A4; cited from earlier work.
A short description of series [3]: Steady-state vs single dose exposure in various other clinical trials. The series is classed as in vivo, human. As to conditions: different formulations.
A short description of series [4]: Disintegration behavior of tablets in approximately 250 mL water. The series is classed as physicochemical. As to conditions: single tablet in approximately 250 mL water.

Structures are written as SMILES.

Regarding `O=C(O)/C=C/C(=O)O` [Fumaric, Fumaric Acid], the Dissolution time is 312 s in series [1] (25° C.) and 152 s in series [1] (37° C.).
On to `O=C(O)/C=C\C(=O)O` [Maleic, Maleic Acid], for which the results for the Dissolution time in series [1] (25° C.) and in series [1] (37° C.) were 4 s and less than 2 s, respectively.
With `CCCCOCCOc1ccc(-c2ccc3c(c2)/C=C(/C(=O)Nc2ccc([S@@+]([O-])Cc4cncn4CCC)cc2)CCCN3CC(C)C)cc1` [cenicriviroc, (S,E)-8-(4-(2-Butoxyethoxy)phenyl)-1-(2-methylpropyl)-N-(4-(((1-propyl-1H-imidazol-5-yl)methyl)sulfinyl)phenyl)-1,2,3,4-tetrahydrobenzo[b]azocine-5-carboxamide], the “Decrease of cenicriviroc plasma concentration by efavirenz” value in series [2] is “approximately 2 fold”. In series [3], the “Steady-state exposure level (AUC, day 10) relative to single dose exposure” value is listed as “approximately 1.5 fold”.
Consider `Nc1ccn([C@@H]2CS[C@H](CO)O2)c(=O)n1` [lamivudine], for which, in series [4], the “Disintegration Observations (mode)” value is recorded as “Rapid” and the Disintegration time entry is reported as “tion <30 seconds”.
